Holding throughout (assay type): functional, cell-based
Assay [1] has as its target T1, G-protein coupled receptor 35 (Homo sapiens, UniProt Q9HC97). Briefly: Agonist activity at human GPR35 expressed in U2OS cells coexpressing Gal4-VP16/beta-arrestin fusion protein after 5 hrs by tango beta-arrestin translocation reporter gene assay relative to zaprinast. A general note: Reporter assays use an easily measured gene product as a stand-in for the process of interest.

In assay [2] the target is T1, G-protein coupled receptor 35. As to the kind of experiment: Agonist activity at human GPR35 expressed in U2OS cells coexpressing Gal4-VP16/beta-arrestin fusion protein after 5 hrs by tango beta-arrestin translocation reporter gene assay.
Assay [3] has the same target. As to the kind of experiment: Agonist activity at GPR35 in human HT-29 cells at 64 uM measured after 10 mins by dynamic mass redistribution assay in presence of SPB05142.
Assay [4] shares this target. Briefly: Agonist activity at GPR35 in human HT-29 cells measured after 10 mins by dynamic mass redistribution assay.
Assay [5] has the same target. Briefly: Agonist activity at human GPR35 expressed in U2OS cells coexpressing Gal4-VP16/beta-arrestin fusion protein at 100 uM after 5 hrs by tango beta-arrestin translocation reporter gene assay in presence of ML145.
Assay [6] has the same target. Briefly: Agonist activity at GPR35 in human HT-29 cells at 1 uM measured after 10 mins by dynamic mass redistribution assay in presence of SPB05142.
Assay [7] has the same target. Briefly: Agonist activity at GPR35 in human HT-29 cells at 32 uM measured after 10 mins by dynamic mass redistribution assay in presence of SPB05142.

The structures appear in SMILES notation. The source made the active and inactive calls. No cut-off for these calls is given here.

By EC50 is commonly meant the concentration at which the effect is half-maximal.

T1 sequence (Q9HC97 whole entry, the tested form may be a part): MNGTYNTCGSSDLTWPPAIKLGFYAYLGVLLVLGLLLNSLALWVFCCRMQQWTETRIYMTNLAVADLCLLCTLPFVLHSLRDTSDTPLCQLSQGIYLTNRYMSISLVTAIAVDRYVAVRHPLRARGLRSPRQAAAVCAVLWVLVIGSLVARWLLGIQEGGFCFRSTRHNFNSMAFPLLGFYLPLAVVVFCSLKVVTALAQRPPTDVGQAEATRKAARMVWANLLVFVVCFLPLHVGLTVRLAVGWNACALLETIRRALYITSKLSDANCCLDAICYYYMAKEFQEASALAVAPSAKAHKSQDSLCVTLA

With `Cc1c(C(=O)O)oc2cc(O)c(O)cc12`, the Efficacy in assay [1] turned out to be 27%. The results for the EC50 in assay [2] (read-out: EC50) and in assay [4] (read-out: EC50) were 133 µM and 16.2 µM, respectively. Also, in assay [3], the outcome was inactive.
Consider `O=C(O)c1[nH]c2cc(O)c(O)cc2c1-c1ccccc1`, for which the concentration giving a half-maximal response (EC50) entry in assay [2] (u2os) is “Not Active”; in assay [4] (read-out: EC50) it was 20.2 µM.
`O=C(O)c1ccc(-c2c(C(=O)O)[nH]c3cc(O)c(O)cc23)cc1` came in with an Efficacy in assay [1] of 40%. For the same compound, the results for the 50% effective concentration (EC50) in assay [2] (read-out: EC50) and in assay [4] (read-out: EC50) were 10.8 µM and 22.6 µM, respectively.
For the compound `O=C(O)c1[nH]c2cc(O)c(O)cc2c1-c1ccc(C(F)(F)F)cc1`, the 50% effective concentration (EC50) entry in assay [2] (u2os) is “Not Active”; in assay [4] (read-out: EC50) it was 12.9 µM.
`O=C(O)c1[nH]c2cc(O)c(O)cc2c1-c1cc(F)cc(F)c1` yielded an Efficacy in assay [1] of 48%. Further, the half-maximal effective concentration (EC50) in assay [2] (read-out: EC50) is 109 µM; in assay [4] (read-out: EC50), 4.36 µM.
The like results for `O=C(O)c1[nH]c2cc(O)c(O)cc2c1-c1cccc(Cl)c1` were, in that order, 19%, 34.4 µM and 2.48 µM.
For `O=C(O)c1[nH]c2cc(O)c(O)cc2c1-c1ccsc1`, in that order: 18%, 61.2 µM and 10.3 µM.
For `O=C(O)c1[nH]c2cc(O)c(O)cc2c1-c1ccc(Cl)cc1`, in that order: 89%, 387 µM and 2.54 µM.
`Cn1c(C(=O)O)cc2cc(O)c(O)cc21` had an Efficacy in assay [1] of 85%. For the same compound, the concentration for a half-maximal effect (EC50) in assay [2] (read-out: EC50) worked out at 45.4 µM; in assay [4] (read-out: EC50) it was 64.2 µM.
Consider `O=C(O)c1[nH]c2cc(O)c(O)cc2c1-c1cc(Cl)cc(Cl)c1`, for which the Efficacy in assay [1] is 25%. Further, the EC50 in assay [2] (read-out: EC50) worked out at 24.2 µM; in assay [4] (read-out: EC50), 1.06 µM.
As for `Cc1c(C(=O)O)sc2cc(Br)c(O)c(Br)c12`, the result in assay [5] and in assay [6] was inactive. This compound yielded an Efficacy in assay [1] of 94%. For the same compound, the half-maximal effective concentration (EC50) in assay [2] (read-out: EC50) was 46.5 µM; in assay [4] (read-out: EC50) it was 0.16 µM.
Compound `O=C(O)c1[nH]c2cc(O)c(O)cc2c1Br` showed an Efficacy in assay [1] of 48%. The EC50 stood at 166 µM in assay [2] (read-out: EC50) and 4.1 µM in assay [4] (read-out: EC50).
As to `O=C(O)c1[nH]c2cc(O)c(O)cc2c1-c1cccnc1`, the EC50 entry is “Not Active” in assay [2] (u2os) and 84 µM in assay [4] (read-out: EC50).
`Cc1ccc(Cn2c(C(=O)O)cc3cc(O)c(O)cc32)cc1`: in assay [1], the Efficacy is more than 25%. Further, the 50% effective concentration (EC50) is more than 500 µM in assay [2] (read-out: EC50) and 17.3 µM in assay [4] (read-out: EC50).
In assay [1], `CCn1c(C(=O)O)cc2cc(O)c(O)cc21` had an Efficacy of 52%. Also, the EC50 in assay [2] (read-out: EC50) was 45.7 µM; in assay [4] (read-out: EC50), 77.1 µM.
Compound `O=C(O)c1cc2cc(O)c(O)cc2s1` registered an Efficacy in assay [1] of 86%. The outcome in assay [7] was inactive. Besides, the EC50 in assay [2] (read-out: EC50) was 520 µM; in assay [4] (read-out: EC50) it was 7.35 µM.
For `O=C(O)Cn1c(C(=O)O)cc2cc(O)c(O)cc21`, the EC50 result in assay [2] (u2os) and in assay [4] (ht-29) was “Not Active” each time.
Take `Cc1ccc(C(=O)Cn2c(C(=O)O)cc3cc(O)c(O)cc32)cc1`: the EC50 entry is “Not Active” in assay [2] (u2os) and 39.7 µM in assay [4] (read-out: EC50).
`Cc1c(C(=O)O)sc2cc(O)c(O)cc12` had an Efficacy in assay [1] of 109%. Besides, the result in assay [7] was inactive. The EC50 in assay [2] (read-out: EC50) was 90.6 µM; in assay [4] (read-out: EC50), 6.17 µM.
In assay [1], `O=C(O)c1cccc(-c2c(C(=O)O)[nH]c3cc(O)c(O)cc23)c1` had an Efficacy of 17%. Also, the EC50 in assay [2] (read-out: EC50) was 75.7 µM; in assay [4] (read-out: EC50), 24.9 µM.
Take `O=C(O)c1cc2cc(O)c(O)cc2n1Cc1ccccc1`: the EC50 result in assay [2] (u2os) was “Not Active”; in assay [4] (read-out: EC50), 43.5 µM.
Turning to `O=C(O)c1cc2cc(O)c(O)cc2[nH]1`, the Efficacy in assay [1] is 75%. Moreover, the concentration giving a half-maximal response (EC50) worked out at 23.2 µM in assay [2] (read-out: EC50) and 23.6 µM in assay [4] (read-out: EC50).
For `O=C(Cn1c(C(=O)O)cc2cc(O)c(O)cc21)c1ccccc1`, the EC50 entry in assay [2] (u2os) is “Not Active”; in assay [4] (read-out: EC50) it was 43.7 µM.

The values above are taken from ChEMBL document CHEMBL2086317, “Synthesis and Agonistic Activity at the GPR35 of 5,6-Dihydroxyindole-2-carboxylic Acid Analogues” (ACS Med Chem Lett, 2012).
